What all share (test): MIC by agar dilution method
Holding throughout (format): cell-based

Experiment [1] has as its system Proteus vulgaris OKI 60002.
Experiment [2] has as its system Pseudomonas aeruginosa ATCC 27853. The settings on record: ATCC27853.
Experiment [3] relates to Staphylococcus epidermis OKI 110001. The settings on record: OKI110001.
Experiment [4] has as its system Helicobacter pylori 27606.
Experiment [5] deals with Staphylococcus aureus ATCC 25923.
In experiment [6] the test system is Helicobacter pylori 27604.
In experiment [7] the test system is Escherichia coli OKI 35034.
Experiment [8] concerns Streptococcus fecalis OKI 80171. To be noted: OKI80171, Streptococcus fecalis OKI 80171, agar dilution.
In experiment [9] the test system is Salmonella typhi OKI 10084. To be noted: Salmonella enterica, Salmonella typhi OKI 10084, agar dilution.
The mark [10] stands for this setting: Proteus vulgaris, OKI60002, Proteus vulgaris OKI 60002, agar dilution, read-out: MIC.
The mark [11] stands for this setting: Helicobacter pylori 27606, agar dilution, read-out: MIC.
The mark [12] stands for this setting: ATCC25923, Staphylococcus aureus ATCC 25923, agar dilution, read-out: MIC.
Setting [13] is: Helicobacter pylori 27604, agar dilution, read-out: MIC.
Setting [14] is: Escherichia coli, OKI35034, Escherichia coli OKI 35034, agar dilution, read-out: MIC.

Structures are written as SMILES. Converted amounts (≈) assume the structure as drawn. Read-outs that look alike come from different tables or passages of the source.

On to `CC1(C)S[C@@H]2[C@H](NC(=O)[C@H](N)c3ccc(O)cc3)C(=O)N2[C@H]1C(=O)O` [Amoxicillin, amoxicillin], for which the MIC was 100 µg/mL (≈ 274 µM) in [1] (Proteus vulgaris OKI 60002, agar dilution); 50 µg/mL (≈ 137 µM) in experiment [1] (setting [10]); over 100 µg/mL in experiment [2] (Pseudomonas aeruginosa ATCC 27853, agar dilution, read-out: MIC); at least 0.39 µg/mL in experiment [3] (Staphylococcus epidermis OKI 110001, agar dilution, read-out: MIC); at least 0.39 µg/mL in experiment [4] (setting [11]); at least 0.39 µg/mL in experiment [5] (setting [12]). In addition, the MIC was at least 0.39 µg/mL in experiment [6] (setting [13]); 50 µg/mL (≈ 137 µM) in experiment [7] (Escherichia coli OKI 35034, agar dilution); 25 µg/mL (≈ 68.4 µM) in [7] (setting [14]).

Regarding `CCn1cc(C(=O)O)c(=O)c2cc(F)c(N3CCNCC3)cc21` [Norfloxacin, norfloxacin], the MIC in experiment [1] (setting [10]) was determined as 0.78 µg/mL (≈ 2.44 µM); in experiment [2] (Pseudomonas aeruginosa), 12.5 µg/mL (≈ 39.1 µM); in experiment [3] (Staphylococcus) it was 1.56 µg/mL (≈ 4.89 µM); in experiment [4] (setting [11]) it was 6.25 µg/mL (≈ 19.6 µM); in experiment [5] (setting [12]), 6.25 µg/mL (≈ 19.6 µM); in experiment [6] (setting [13]), 6.25 µg/mL (≈ 19.6 µM). Further, the MIC was 12.5 µg/mL (≈ 39.1 µM) in experiment [8], at least 0.39 µg/mL in [9] (TYPHI) and at least 0.39 µg/mL in [7] (setting [14]).

In the case of `CCOP(=O)(OCC)C(CSCC(=O)OCOC(=O)N1CCN(c2cc3c(cc2F)c(=O)c(C(=O)O)cn3CC)CC1)P(=O)(OCC)OCC` [Example 1 B, 7-(4-((2,2-Bis-(diethoxyphosphoryl)-ethylsulfanyl)-acetoxymethoxycarbonyl)-piperazin-1-yl)-1-ethyl-6-fluoro-4-oxo-1,4-dihydroquinoline-3-carboxylic acid], the MIC in [1] (Proteus vulgaris, OKI60002) was found to be 1.56 µg/mL (≈ 2.03 µM); in experiment [2] (Pseudomonas aeruginosa), 12.5 µg/mL (≈ 16.3 µM); in [3] (Staphylococcus), 1.56 µg/mL (≈ 2.03 µM); in experiment [4] (Helicobacter pylori, 27606) it was 3.12 µg/mL (≈ 4.06 µM); in experiment [5] (ATCC25923) it was 6.25 µg/mL (≈ 8.14 µM); in [6] (Helicobacter pylori, 27604), 6.25 µg/mL (≈ 8.14 µM). For the same compound, the MIC in experiment [8] is 12.5 µg/mL (≈ 16.3 µM); in [9] (read-out: MIC), at least 0.78 µg/mL; in [7] (Escherichia coli, OKI35034, Escherichia coli OKI 35034, agar dilution) it was at least 0.39 µg/mL.
